Experimental findings from patent publication USRE32311E are described below.

≈ marks a conversion by molar mass, not a printed value.

Data set [1] has as its system Staphylococcus aureus X1.1. In words: agar-dilution MIC. The data set is classed as cell-based.
Data set [2] concerns Staphylococcus aureus X400. In words: agar-dilution MIC. It is filed as cell-based. Particulars: Staphylococcus aureus X400, methicillin-resistant strain.
Description: (§1) In Table VII activity is measured by the minimal inhibitory concentration (MIC), i.e. the lowest concentration of compound at which growth of the microorganism is inhibited by the test compound.
In another data set the test system is Staphylococcus aureus. In words: experimental bacterial infection in mice, ED50. It is filed as in vivo. Conditions: two doses.
A further data set concerns Streptococcus pyogenes. The data set can be described thus: experimental bacterial infection in mice, ED50. The data set is classed as in vivo. Conditions: two doses.
A further data set in a line: toxicity, LD50 in mice. It is filed as in vivo. Conditions: administered intravenously.
Data set [3] has as its system Staphylococcus aureus V41. In words: agar-dilution MIC. Conditions: Staphylococcus aureus V41, penicillin-resistant strain. It is filed as cell-based.
Description: as §1
Data set [4] deals with Staphylococcus epidermidis EP11. In words: agar-dilution MIC. It is filed as cell-based.
Description: as §1
Data set [5] relates to Staphylococcus epidermidis EP12. The data set can be described thus: agar-dilution MIC. It is filed as cell-based.
Description: as §1
Data set [6] relates to Streptococcus Group D X66. In words: agar-dilution MIC. The data set is classed as cell-based.
Description: as §1
The subject of data set [7] is Streptococcus Group D 9960. In words: agar-dilution MIC. It is filed as cell-based.

For `CCCCCCCCCCCC(=O)Nc1ccc(C(=O)N[C@@H](Cc2c[nH]c3ccccc23)C(=O)N[C@H](CC(N)=O)C(=O)N[C@@H](CC(=O)O)C(=O)N[C@@H]2C(=O)NCC(=O)N[C@@H](CCCN)C(=O)N[C@@H](CC(=O)O)C(=O)N[C@H](C)C(=O)N[C@@H](CC(=O)O)C(=O)NCC(=O)N[C@H](CO)C(=O)N[C@@H]([C@H](C)CC(=O)O)C(=O)N[C@@H](CC(=O)c3ccccc3N)C(=O)O[C@@H]2C)cc1` [Compound 4], the MIC in data set [1] is 4 µg/mL (≈ 2.26 µM); in [2] it was 8 µg/mL (≈ 4.53 µM). The “ED50 Staphylococcus aureus Subcutaneous” value in the data set on Staphylococcus aureus is less than 5 mg/kg × 2. Further, in the data set on Streptococcus pyogenes, the “ED50 Streptococcus pyogenes Oral” value is listed as more than 200 mg/kg × 2. Moreover, the “ED50 Streptococcus pyogenes Subcutaneous” value with Streptococcus pyogenes is on record as 18.8 mg/kg × 2. The “LD50 in Mice” value in the data set “toxicity, LD50 in mice” is recorded as more than 300 mg/kg.

`CCCCCCCCCCCCC(=O)N[C@@H](Cc1ccccc1)C(=O)N[C@@H](Cc1c[nH]c2ccccc12)C(=O)N[C@H](CC(N)=O)C(=O)N[C@@H](CC(=O)O)C(=O)N[C@@H]1C(=O)NCC(=O)N[C@@H](CCCN)C(=O)N[C@@H](CC(=O)O)C(=O)N[C@H](C)C(=O)N[C@@H](CC(=O)O)C(=O)NCC(=O)N[C@H](CO)C(=O)N[C@@H]([C@H](C)CC(=O)O)C(=O)N[C@@H](CC(=O)c2ccccc2N)C(=O)O[C@@H]1C` [Compound 21]: the MIC in data set [1] worked out at 0.5 µg/mL (≈ 0.276 µM); in data set [3], 0.5 µg/mL (≈ 0.276 µM); in [2], 2 µg/mL (≈ 1.11 µM); in data set [4], 2 µg/mL (≈ 1.11 µM); in data set [5] it was 2 µg/mL (≈ 1.11 µM); in data set [6] it was 1 µg/mL (≈ 0.553 µM). This compound registered an MIC in [7] of 0.25 µg/mL (≈ 0.138 µM). Also, in the data set on Staphylococcus aureus, the “ED50 Staphylococcus aureus Subcutaneous” value was determined as 0.76 mg/kg × 2. Besides, the “ED50 Streptococcus pyogenes Oral” value in the data set with Streptococcus pyogenes is recorded as more than 200 mg/kg × 2. The “ED50 Streptococcus pyogenes Subcutaneous” value in the data set with Streptococcus pyogenes came out at 0.14 mg/kg × 2.

Take `CCCCCCCCCCCC(=O)N[C@H](Cc1ccccc1)C(=O)N[C@@H](Cc1c[nH]c2ccccc12)C(=O)N[C@H](CC(N)=O)C(=O)N[C@@H](CC(=O)O)C(=O)N[C@@H]1C(=O)NCC(=O)N[C@@H](CCCN)C(=O)N[C@@H](CC(=O)O)C(=O)N[C@H](C)C(=O)N[C@@H](CC(=O)O)C(=O)NCC(=O)N[C@H](CO)C(=O)N[C@@H]([C@H](C)CC(=O)O)C(=O)N[C@@H](CC(=O)c2ccccc2N)C(=O)O[C@@H]1C` [Compound 1]: the MIC is 0.5 µg/mL (≈ 0.278 µM) in data set [1]; 0.5 µg/mL (≈ 0.278 µM) in data set [3]; 1 µg/mL (≈ 0.557 µM) in data set [2]; 2 µg/mL (≈ 1.11 µM) in data set [4]; 1 µg/mL (≈ 0.557 µM) in data set [5]; 1 µg/mL (≈ 0.557 µM) in data set [6]. For the same compound, the MIC in data set [7] came to 0.5 µg/mL (≈ 0.278 µM). In the data set on Streptococcus pyogenes, the “ED50 Streptococcus pyogenes Oral” value is more than 200 mg/kg × 2. Also, in “toxicity, LD50 in mice”, the “LD50 in Mice” value is listed as 250 mg/kg.

Turning to `CCCCCC(=O)N[C@@H](Cc1c[nH]c2ccccc12)C(=O)NCCC[C@@H]1NC(=O)CNC(=O)[C@@H](NC(=O)[C@H](CC(=O)O)NC(=O)[C@@H](CC(N)=O)NC(=O)[C@H](Cc2c[nH]c3ccccc23)NC(=O)CCCCCCCCC(C)CC)[C@@H](C)OC(=O)[C@H](CC(=O)c2ccccc2N)NC(=O)[C@H]([C@H](C)CC(=O)O)NC(=O)[C@@H](CO)NC(=O)CNC(=O)[C@H](CC(=O)O)NC(=O)[C@@H](C)NC(=O)[C@H](CC(=O)O)NC1=O` (stereo partly drawn) [Compound 29], the MIC in [2] worked out at 1 µg/mL (≈ 0.514 µM); in [6], 8 µg/mL (≈ 4.11 µM); in [7], 32 µg/mL (≈ 16.4 µM). Further, the “ED50 Streptococcus pyogenes Oral” value in the data set with Streptococcus pyogenes is given as more than 200 mg/kg × 2. Further, the “LD50 in Mice” value in the data set “toxicity, LD50 in mice” was determined as 37.5 mg/kg.

Broadly, the MIC is the smallest concentration in the dilution series that meets the test's criterion for growth inhibition. Low values mean inhibition by little substance, high ones a need for much substance.
